Target: T1, Aβ42 (Homo sapiens, UniProt P05067)
T1 construct: made in house; host or cells: E. coli BL21 Gold (DE3)
Test: ThT kinetic assay of Aβ42 aggregation (unseeded)
Assay type: biochemical
Details: 2 μM Aβ42; 5× drug:protein concentration
Text: The recombinant Aβ(M1-42) peptide ([…]-SNKGAIIGLMVGGVVIA [SEQ ID NO: 1]), here called Aβ42, was expressed in the E. coli BL21 Gold (DE3) strain (Stratagene, Calif., U.S.A.) and purified as described previously with slight modifications. Briefly, the purification procedure involved sonication of E. coli cells, dissolution of inclusion bodies in 8 M urea, and ion exchange in batch mode on diethylaminoethyl cellulose resin and lyophylization. The lyophilized fractions were further purified using Superdex 75 HR 26/60 column (GE Healthcare, Buckinghamshire, U.K.) and eluates were analyzed using SDS-PAGE for the presence of the desired protein product. The fractions containing the recombinant protein were combined, frozen using liquid nitrogen, and lyophilized again.
Except for Netoglitazone, which was custom synthesised by GVK BIO, all small molecules were purchased with a purity greater than 99%. Small molecules were first solubilized in 100% DMSO to a concentration of 5 mM, and then diluted in the peptide solution to reach a final DMSO concentration of maximum 1-3%. We verified that the addition of DMSO in the reaction mixture has no effect on Aβ42 aggregation.
Solutions of monomeric peptides were prepared by dissolving the lyophilized Aβ42 peptide in 6 M GuHCl. Monomeric forms were purified from potential oligomeric species and salt using a Superdex 75 10/300 GL column (GE Healthcare) at a flowrate of 0.5 mL/min, and were eluted in 20 mM sodium phosphate buffer, pH 8 supplemented with 200 μM EDTA and 0.02% NaN3. The centre of the peak was collected, and the peptide concentration was determined from the absorbance of the integrated peak area using ε280=1490 L mol^−1 cm^−1. The obtained monomer was diluted with buffer to the desired concentration and supplemented with 20 μM Thioflavin T (ThT) from a 1 mM stock. All samples were prepared in low binding Eppendorf tubes on ice using careful pipetting to avoid introduction of air bubbles. Each sample was then pipetted into multiple wells of a 96-well half-area, low-binding, clear bottom and PEG coating plate (Corning 3881), 80 μL per well. Aβ42 kinetics have been performed in the absence or the presence of Netoglitazone, Mitoglitazone, Rosiglotazone, Rivoglitazone, Pioglitazone, Ciglitazone, Englitazone, Darglitazone, Troglitazone and Balaglitazone.
The time evolution of the total fibril mass concentration is described as a function only of the initial conditions and the rate constants of the system by the integrated rate law given by Eq. (54) in Cohen et al., J Chem Phys 135, 065106, 2011.
These are related to the rate of formation of new aggregates through primary pathways λ=√{square root over (2k+knm(0)^n^c)} and through secondary pathways κ=√{square root over (2k+k2m(0)^n^2^+1)}, where the initial concentration of soluble monomers is denoted by m(0), nc and n2 describe the dependencies of the primary and secondary pathways on the monomer concentration (nc=n2=2 for Aβ42), and kn, k+ and k2 are the rate constants of the primary nucleation, elongation and secondary nucleation, respectively (Cohen et al., Proc Natl Acad Sci USA, 110(24), 9758-63, 2013).
Inhibitors can interfere with the aggregation process by inhibiting one or more of the individual microscopic steps.

T1 sequence (P05067 671-713): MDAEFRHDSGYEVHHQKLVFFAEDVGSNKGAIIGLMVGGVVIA

| Compound | Delay of Aβ42 aggregation |
| --- | --- |
| Cc1oc(-c2ccccc2)nc1CCC(=O)c1ccc(CC2SC(=O)NC2=O)cc1 (centres unmarked) [Darglitazone] | observed to delay Aβ42 aggregation |
| CCc1ccc(C(=O)COc2ccc(CC3SC(=O)NC3=O)cc2)nc1 (centres unmarked) [Mitoglitazone] | little to no delay of Aβ42 aggregation was observed |
| COc1ccc2nc(COc3ccc(CC4SC(=O)NC4=O)cc3)n(C)c2c1 (centres unmarked) [Rivoglitazone] | little to no delay of Aβ42 aggregation was observed |
| O=C1NC(=O)C(Cc2ccc3c(c2)CC[C@H](Cc2ccccc2)O3)S1 (some centres unmarked) [Englitazone] | significantly delayed aggregation |
| Cn1c(COc2ccc(CC3SC(=O)NC3=O)cc2)nc2ccccc2c1=O (centres unmarked) [Balaglitazone] | little to no delay of Aβ42 aggregation was observed |

Source: patent publication US20210145801A1, “THERAPY FOR PROTEIN MISFOLDING DISEASE” (WREN THERAPEUTICS LIMITED, priority 2018, published 2021)
